Assays:
CDK2 = target: T1, CDK2 (Homo sapiens, UniProt P24941); test: Kinase antagonist activity assay (TR-FRET), CDK2; assay type: biochemical
T1 construct: purchased Thermo Fisher Scientific
Experimental: (§1) The compounds were solubilized with DMSO (Solarbio Life Sciences, Beijing, China), and 11 concentrations were serially diluted at 3-fold; 100 nL of compound was added to 384-well plates, 5 μL of 2 × enzyme mixture (Thermo Fisher Scientific, Waltham, MA, USA) was added, and 5 μL of buffer was added instead of the complete inhibition control wells. Then, 1000 rpm centrifugation was performed for 30 s followed by a 15 min incubation at 23 °C. Next, 5 μL of 2 × MLight-MBP peptide (PerkinElmer, Waltham, MA, USA) was added to each well, with 1000 rpm centrifugation for 30 s and incubation at 23 °C for 90 min. At the end of the incubation, the reaction was terminated with buffer containing 15 mM EDTA and 2 nM Eu-anti-P-MBP antibody (PerkinElmer, Waltham, MA, USA), centrifuged at 1000 rpm for 1 min, and incubated at 23 °C for 60 min; the plates were read on a Perkin Elmer Envision ([…]).

HCT116 cells = test: Colony formation, HCT116; assay type: cell-based; details: 14 days
Experimental: (§2) Cells were inoculated in six-well plates at 1000 cells per well, and III-13 was added in a dose-dependent manner after 24 h. Cells were stained with Crystal Violet Staining Solution (Beyotime, Shanghai, China) at 14 days after incubation, and the cell colonies were counted using Image J.

OVCAR3 cells = test: Colony formation, OVCAR3; assay type: cell-based; details: 14 days
Experimental: as §2

[1] = test system: MDM2 mRNA in OVCAR3 cells; test: q-PCR of MDM2 mRNA after III-13 treatment; assay type: cell-based, human; details: q-PCR after 12 h of treatment
Description: RNA was reverse transcribed with the HiScript Q RT SuperMix for qPCR (Vazyme, Nanjing, China), and quantitative real-time PCR (qPCR) was applied using SYBR Green qPCR Mix (SparkJade, Jinan, China) on the ABI Prism 7500 Fast Real-Time PCR System (Applied Biosystems, Carlsbad, CA, USA) following the manufacturer’s protocols. The comparative CT method (ΔΔCt) was used to calculate gene expression differences, with GAPDH as the reference gene. The following primers were used (human): • ZNF311 (sense, 5′-3′): […] • ZNF311 (antisense, 5′-3′): […] • TBX15 (sense, 5′-3′): […] • TBX15 ([…], 5′-3′): […] • ZNF784 (sense, 5′-3′): […] • ZNF784 (antisense, 5′-3′): […] • SIX3 (sense, 5′-3′): […] • SIX3 (antisense, 5′-3′): […] • KLLN (sense, 5′-3′): […] • KLLN (antisense, 5′-3′): […] • P2RY1 (sense, 5′-3′): […] • P2RY1 (antisense, 5′-3′): […] • MSH4 (sense, 5′-3′): […] • MSH4 (antisense, 5′-3′): […] • STAR (sense, 5′-3′): […] • STAR (antisense, 5′-3′): […] • SUMO4 (sense, 5′-3′): […] • SUMO4 (antisense, 5′-3′): […] • ZC3H12D (sense, 5′-3′): […] • ZC3H12D (antisense, 5′-3′): […] • CCNE1 (sense, 5′-3′): […] • CCNE1 (antisense, 5′-3′): […] • MDM2 (sense, 5′-3′): […] • MDM2 (antisense, 5′-3′): […] • GAPDH (sense, 5′-3′): […] • GAPDH (antisense, 5′-3′): […]

[2] = Pharmacokinetics study in rats; assay type: in vivo
Experimental: The pharmacokinetics study was created as described. […] Approximately 200 μL of whole blood was collected into heparin-coated tubes at 0.083, 0.25, 0.5, 1, 2, 3, 4, 6, 8, 12, and 24 h after dosing. Plasma was collected immediately by centrifugation (8000× g, 5 min, room temperature). Blood was placed in a heparinized Eppendorf™ tube. Plasma was centrifuged, and the concentration of compounds in the sample was determined by LCMS/MS after pre-treatment. Drug-concentration data were processed in a […] using WinNonlin™ 6.3 (Pharsight, Mountain View, CA, USA).

TOV-21G cells = test: Cell proliferation assay (Celltiter-Glo), TOV-21G; assay type: cell-based; details: Homo sapiens, TOV21G, 72 h; TOV-21G (normal expression of CCNE1), three days
Experimental: Celltiter-Glo Luminescent Cell Viability Assay (Promega, Madison, WI, USA) was used to detect cell viability according to the manufacturer’s instructions. This assay is a homogeneous method of determining the number of viable cells in a culture based on quantitation of the ATP present, an indicator of metabolically active cells. Cells were digested and paved in white-bottomed 96-well plates with 1000 cells/100 μL cell suspension solution; then, different concentrations of compounds were added the next day. TOV-21G and HCT116 were placed in the incubator for three days and OVCAR3 for five days. Then, 100 μL Celltiter-Glo solution was added and mixed for 5 min; the luminous intensity of each well was detected with a spectrophotometer (BioTek, Winooski, VT, USA). The experiment was repeated three times to calculate the cell survival rate.

CDK4 = target: T2, CDK4 (Homo sapiens, UniProt P11802); test: Kinase antagonist activity assay (TR-FRET), CDK4; assay type: biochemical
T2 construct: purchased Thermo Fisher Scientific
T2 sequence (P11802 whole entry): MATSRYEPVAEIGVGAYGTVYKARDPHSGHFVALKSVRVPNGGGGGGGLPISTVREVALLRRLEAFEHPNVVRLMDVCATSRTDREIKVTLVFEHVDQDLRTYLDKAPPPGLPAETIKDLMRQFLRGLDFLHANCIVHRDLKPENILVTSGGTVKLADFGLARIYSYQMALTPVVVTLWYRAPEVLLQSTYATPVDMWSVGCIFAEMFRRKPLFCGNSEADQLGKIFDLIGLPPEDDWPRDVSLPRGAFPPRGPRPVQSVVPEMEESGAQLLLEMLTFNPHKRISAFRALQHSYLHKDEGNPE
T2 sequence (P24385 whole entry partner): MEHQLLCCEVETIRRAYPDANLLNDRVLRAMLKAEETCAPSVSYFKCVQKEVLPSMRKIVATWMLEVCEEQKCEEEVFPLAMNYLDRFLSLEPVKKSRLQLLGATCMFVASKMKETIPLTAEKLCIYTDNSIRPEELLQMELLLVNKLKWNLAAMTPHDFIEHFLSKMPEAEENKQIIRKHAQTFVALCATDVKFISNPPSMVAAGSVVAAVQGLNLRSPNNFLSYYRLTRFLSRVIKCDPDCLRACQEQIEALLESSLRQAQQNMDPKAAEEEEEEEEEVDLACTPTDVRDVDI
Experimental: as §1

[3] = Liver microsomal stability, human; assay type: in vitro ADME; details: Human liver microsomes
Experimental: Compounds were incubated with mouse, rat, and human liver microsomal samples and NADPH at 37 °C for 5, 10, 20, 30, or 60 min. The reaction was terminated with a cold acetonitrile solution containing tolbutamide. Compound retention was determined by LC-MS/MS. The retention times, chromatographic acquisition, and chromatographic integration of compounds and positive control substances were analyzed using Analyst (AB Sciex, Framingham, MA, USA).

[4] = both sexes, rat, plasma, iv, 2 mg/kg i.v.
[5] = both sexes, rat, plasma, iv, 2 mg/kg, 2 mg/kg i.v.
[6] = both sexes, rat, plasma, po, 5 mg/kg i.g.
[7] = both sexes, rat, plasma, po, 5 mg/kg, 5 mg/kg i.g.

Q: With `CC1(C)CCN1C(=O)O[C@@H]1CC[C@H](c2cc(NC(=O)Cc3ccc(N4CCCC4=O)cc3)n[nH]2)C1` [III-13] as the molecule, how does the IC50 (CDK2) read?
A: The IC50 was 2.6 nM.

Q: What about the IC90 (CDK2) of the same molecule?
A: The IC90 was 26.2 nM.

Q: What about the number of colonies (HCT116 cells) of the same molecule?
A: The number of colonies was “significant reduction”.

Q: And the number of colonies (OVCAR3 cells)?
A: The number of colonies was “significant reduction”.

Q: What about the “MDM2 mRNA expression” value [1] of the same molecule?
A: The value was “significantly inhibited”.

Q: And the CL/F ([2]; 2 mg/kg i.v.)?
A: Its CL/F is 41.2 mL/min/kg.

Q: And the Vz/F ([2]; 2 mg/kg i.v.)?
A: The Vz/F was 1.3 ± 0.374 L/kg.

Q: And the AUClast ([2]; 2 mg/kg i.v., 2 mg/kg)?
A: The AUClast was 2.052 ± 0.337 µM·h.

Q: And the T1/2 ([2]; 2 mg/kg i.v., 2 mg/kg)?
A: The T1/2 was 22.2 ± 7.8 min.

Q: What about the AUClast ([2]; 5 mg/kg i.g., 5 mg/kg) of the same molecule?
A: The AUClast was 0.293 ± 0.0646 µM·h.

Q: And the T1/2 ([2]; 5 mg/kg i.g., 5 mg/kg)?
A: Its T1/2 is 50.4 ± 7.2 min.

Q: What about the Cmax [2, 4] of the same molecule?
A: Its Cmax is 5500 ± 2310 nM.

Q: And the MRT last [2, 4]?
A: Its MRT last is 27 ± 15 min.

Q: What about the AUC(0-t) [2, 5] of the same molecule?
A: Its AUC(0-t) is about 2.05 µM·h.

Q: What about the half-life [2, 5] of the same molecule?
A: The half-life was about 22.2 min.

Q: What about the bioavailability ([2]; both sexes, rat, plasma, oral, 5 mg/kg, 5 mg/kg i.g. vs 2 mg/kg i.v., read-out: F (oral bioavailability)) of the same molecule?
A: The bioavailability was about 3.57%.

Q: And the Cmax [2, 6]?
A: The Cmax was 389 ± 87.9 nM.

Q: And the MRT last [2, 6]?
A: Its MRT last is 51 ± 6 min.

Q: And the AUC(0-t) [2, 7]?
A: The AUC(0-t) was about 0.293 µM·h.

Q: What about the Tmax [2, 7] of the same molecule?
A: Its Tmax is about 15 min.

Q: What about the half-life [2, 7] of the same molecule?
A: The half-life was about 50.4 min.

Q: And the IC50 (TOV-21G cells)?
A: Its IC50 is 164 nM.

Q: What about the IC50 (CDK4) of the same molecule?
A: The IC50 was 6240 nM.

Q: What about the IC90 (CDK4) of the same molecule?
A: The IC90 was 23100 nM.

Q: What about the CLint scaled [3] of the same molecule?
A: Its CLint scaled is 59.9 mL/min/kg.

Q: What about the “Remaining (T = 60 min)” value ([3]; 60 min) of the same molecule?
A: Its value is 15.4%.

Q: And the half-life ([3]; NADPH, 37 °C)?
A: Its half-life is 21.9 min.

— paper PMC10856454, “Discovery of Novel Antitumor Small-Molecule Agent with Dual Action of CDK2/p-RB and MDM2/p53” (Molecules, 2024)
